Read-outs that look alike come from different tables or passages of the source.
How the values were obtained:
[1] = Acute toxicity (LD50) in the mouse; conditions: in vivo
Description: (§1) Toxicity data for some of the comounds of the invention have been published. Such data may be determined by routine experimentation. TOXICITY DATA for representative compounds NTEL = No toxic effect level.

[2] = system: Local graft versus host (GvH); assay: Local graft versus host (GvH) reaction in the rat, lymph node weight; format: in vivo
Method: Spleen cells (ca 1 x 10⁷) are taken from 6 week old Wistar/Furth/(W/F) rats and are injected into the left hind paw of female (F 344 x WF) F1 rats weighing about 100 g. The rats had been treated daily with the compound from 7 days before the injection and are treated daily for 3 days thereafter. The difference in weight between the left and right lymph nodes is taken as the parameter for evaluating the reaction.

[3] = system: basal serum prolactin levels; assay: Lowering basal serum prolactin levels in the male rat (prolactin secretion inhibition); format: in vivo; conditions: lowering basal serum prolactin levels, male rat, after 4 hours; read-out: ID50 after 4 hours
Description: Many of the above mentioned compounds are published as prolactin secretion inhibitors, some of which are extremely potent and have long lasting activity. The potency of the compounds as prolactin secretion inhibitors can be determined in standard tests, e.g. by lowering basal serum prolactin levels in the male rat.
Results with representative compounds include:-

[4] = system: grafted neonatal heart tissue; assay: Grafting of neonatal heart tissue into ears of mice, graft survival with co-administered cyclosporine; format: in vivo, mouse; conditions: 0.05 mg/kg/day s.c. with cyclosporine 18 mg/kg/day s.c.; group of 10 animals
Description: In this in-vivo test the rejection time of grafted neonatal heart tissue was increased by the compounds of the invention.
In one method a small incision was made at the base of the ear of a C 57 BL mouse (H-2^b). Blunt or fine tweezers were used to loosen the dorsal layer of skin from the cartilaginous layer in order to form a pocket. One half of a heart taken from 1 to 2 day old Balb/c mouse (H-2^d) was then inserted in the pocket. At 6 days post grafting and every week thereafter, the heart graft survival was monitored with microelectrodes placed on each side of the graft. A dynograft recorded was used to record electrical activity emanating from the graft. The end point of graft survival was taken as the time when the electrical activity was lost. Untreated mice rejected the implant after 8 1/2 days.
In this model effective immunosuppression was considered to have occurred if the time to rejection was increased to at least 17 days. […] With the compound A at 0.05 mg/kg/day, s.c.), 50 per cent of the heart allografts in a group of 10 animals were active on day 17.

[5] = system: splenic lymphocytes forming lytic antibodies to the SRBC; assay: Antibody producing cell development in the mouse (PFC test), plaque forming cells to SRBC; format: in vivo; conditions: for percent change from control at 1 mg/kg/day: Mus musculus, Splenic lymphocyte, sc, 144 h, Test A, 1.0 mg/kg/day s.c., 6 days
Method: These methods permit the quantitation of the number of splenic lymphocytes forming lytic antibodies to the SRBC and the distinction between IgM and IgG producing cells.
The intravenous injection of SRBC (5 x 10⁷) in 0.2 ml i.v. served as the primary immunization antigen source in the mouse studies. The mice in these studies were female C57 black of ca 20 grams body weight. All animals were pretreated with the respective compounds for one day prior to the SRBC treatment and daily treated thereafter at 11.00 h for a total of 6 days. The spleens were removed for the determination of PFC numbers to the SRBC antigen.
The spleen cells were suspended in Hepes-buffered Balanced Salt Solution (HBSS), washed once, and resuspended in a volume adjusted according to the expected number of plaque forming cells. The direct quantitiation of IgM-PFC was performed by plaquing 0.1 ml of the diluted splenic cells with 0.025 ml of SRBC (30%), 0.3 ml Agar (0.5% in HBSS), and 0.025 ml complement (guinea pig serum) and plated on Petri dishes. An indirect method of IgG-PFC quantitation was performed with a monoclonal antibody to the IgM (1:4 dilution) plus an anti-gama polyspecific antiserum (1:800) to permit complement fixation. The splenic lymphocytes from each mouse spleen were plated to quantitate IgM- and IgG-PFC in duplicate. All plates were incubated for 4 hours at 37°C and then stored overnight in humidified chambers at 4°C. Plaques were counted by hand with the use of a plaque counter.

[6] = No toxic effect level (NTEL), repeated oral dosing in rats; conditions: rat, in vivo, 4 weeks, p.o.
Description: as §1

[7] = system: lymphocyte responsiveness to allogenic stimulation; assay: Mixed lymphocyte reaction test in mice, 1st variant (responder mice treated, ex vivo 3H thymidine incorporation); conditions: 5 mg/kg s.c., five days
Method: The ability of the compounds of the invention to reduce lymphocyte responsiveness to allogenic stimulation is measured in the mixed lymphocyte reaction test (MLR) wherein irradiated allogenic cells from stimulator mice induce a proliferative response in responder histo-incompatible cells.
Responder mice (Balb/c female, 8-10 weeks old) are treated sub-cutaneously for five days with the compounds of the invention. Equal numbers of murine stimulator lymphocytes (from stimulator, CBA, mice; lymphocytes irradiated in vitro with 200 R) and effector lymphocytes from the treated animals or control animals are incubated for five days. The 3H thymidine incorporated into lymphocyte DNA was used as a parameter for cell proliferation in response to an allogenic stimulus. [See S.S.Rich et al, J.Exp.Medicine, (1974), 140, 1588-1693].

[8] = No toxic effect level (NTEL) / tolerability, repeated oral dosing in dogs; conditions: dog, in vivo, over 4 weeks, Beagle dogs, p.o., read-out: Well tolerated dose
Description: as §1

[9] = combination: 36 mg/kg/day s.c. of Cyclosporine with 0.1 mg/kg/day of compound A

| Structure (SMILES) | LD50 at 168 h ([1]; iv, over 7 days, read-out: acute LD₅₀ (mouse) i.v.) [mg/kg] | LD50 at 336 h ([1]; po, over 14 days, read-out: acute LD₅₀ (mouse) p.o.) [mg/kg] | Weight lymph node ([2]; 0.01 mg/kg/day, control ca 63 mg) | Percentage Difference ([2]; 0.01 mg/kg/day, versus control ca 63 mg) [%] | ED50 [3] [mg/kg] | heart allografts active on day 17 [4] [per cent] | percent change from control at 1 mg/kg/day ([5]; read-out: IgG % of control) [%] | percent change from control at 1 mg/kg/day ([5]; read-out: IgM % of control) [%] | reduction of IgG titre [5, 9] [%] | reduction of IgM titre [5, 9] [%] | NOAEL at 672 h [6] [mg/kg/day] | Weight lymph node ([2]; 5 mg/kg/day, control ca 55 mg) | Percentage Difference ([2]; 5 mg/kg/day, versus control ca 55 mg) [%] | dpm x 10^3/10 cells ± SD ([7]; 3H thymidine incorporation) [dpm x 10^3/10 cells] | inhibition at 5 mg/kg ([7]; Mus musculus, Lymphocyte, sc, 120 h, read-out: inhibited the response) [%] | NOAEL at 672 h [8] [mg/kg/day] |
| --- | --- | --- | --- | --- | --- | --- | --- | --- | --- | --- | --- | --- | --- | --- | --- | --- |
| CCCN1CC(NS(=O)(=O)N(CC)CC)CC2Cc3c(O)cccc3CC21 (stereo not shown) [Compound A] | 17 | 357 | ca 50 mg | -21 | 0.03 | 50 | -71.6 | -55.4 | 79.1 | 62.6 | 0.2 to 0.57 |  |  |  |  |  |
| Cc1[nH]c2cccc3c2c1C[C@@H]1[C@@H]3C[C@H](NC(=O)C(C)(C)C)CN1C [Compound E, (5R,8S,10R)-2,6-dimethyl-8α-pivaloylamino-ergoline] |  |  |  |  |  |  |  |  |  |  |  | ca 39 mg | -41 | 103218 ± 21497 | ~21 | ≥ 3 |
